{"source": "paper PMC9133015", "about": "(Nature Communications, 2022)", "test_in_all_cases": "Kinase inhibitor specificity profiling (Reaction Biology Corporation)", "type_in_all_cases": "biochemical", "set-up_in_all_cases": "% Enzyme Activity (relative to DMSO controls): concentration or dose not given beside the values", "key": {"[1]": {"target": "T1, panel of 370 protein kinases (Homo sapiens, UniProt O00506)", "T1 construct": "purchased Reaction Biology Corporation (assay service)", "T1 sequence (O00506 whole entry)": "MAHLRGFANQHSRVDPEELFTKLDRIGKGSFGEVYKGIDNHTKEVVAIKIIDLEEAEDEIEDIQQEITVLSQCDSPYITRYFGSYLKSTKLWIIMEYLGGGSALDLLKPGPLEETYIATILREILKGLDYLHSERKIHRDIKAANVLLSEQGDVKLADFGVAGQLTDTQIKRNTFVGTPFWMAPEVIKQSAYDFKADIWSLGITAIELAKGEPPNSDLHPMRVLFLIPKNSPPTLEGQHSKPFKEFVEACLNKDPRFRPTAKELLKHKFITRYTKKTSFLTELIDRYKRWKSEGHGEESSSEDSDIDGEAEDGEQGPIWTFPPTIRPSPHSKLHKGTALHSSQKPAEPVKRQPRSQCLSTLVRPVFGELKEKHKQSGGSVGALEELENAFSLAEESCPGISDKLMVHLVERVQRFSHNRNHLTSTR", "details": "2 h, kinase STK25/YSK1; read-out: % Enzyme Activity (relative to DMSO controls)"}, "[2]": {"target": "T2, panel of 370 protein kinases (Homo sapiens, UniProt O60674)", "T2 construct": "purchased Reaction Biology Corporation (assay service)", "T2 sequence (O60674 whole entry)": "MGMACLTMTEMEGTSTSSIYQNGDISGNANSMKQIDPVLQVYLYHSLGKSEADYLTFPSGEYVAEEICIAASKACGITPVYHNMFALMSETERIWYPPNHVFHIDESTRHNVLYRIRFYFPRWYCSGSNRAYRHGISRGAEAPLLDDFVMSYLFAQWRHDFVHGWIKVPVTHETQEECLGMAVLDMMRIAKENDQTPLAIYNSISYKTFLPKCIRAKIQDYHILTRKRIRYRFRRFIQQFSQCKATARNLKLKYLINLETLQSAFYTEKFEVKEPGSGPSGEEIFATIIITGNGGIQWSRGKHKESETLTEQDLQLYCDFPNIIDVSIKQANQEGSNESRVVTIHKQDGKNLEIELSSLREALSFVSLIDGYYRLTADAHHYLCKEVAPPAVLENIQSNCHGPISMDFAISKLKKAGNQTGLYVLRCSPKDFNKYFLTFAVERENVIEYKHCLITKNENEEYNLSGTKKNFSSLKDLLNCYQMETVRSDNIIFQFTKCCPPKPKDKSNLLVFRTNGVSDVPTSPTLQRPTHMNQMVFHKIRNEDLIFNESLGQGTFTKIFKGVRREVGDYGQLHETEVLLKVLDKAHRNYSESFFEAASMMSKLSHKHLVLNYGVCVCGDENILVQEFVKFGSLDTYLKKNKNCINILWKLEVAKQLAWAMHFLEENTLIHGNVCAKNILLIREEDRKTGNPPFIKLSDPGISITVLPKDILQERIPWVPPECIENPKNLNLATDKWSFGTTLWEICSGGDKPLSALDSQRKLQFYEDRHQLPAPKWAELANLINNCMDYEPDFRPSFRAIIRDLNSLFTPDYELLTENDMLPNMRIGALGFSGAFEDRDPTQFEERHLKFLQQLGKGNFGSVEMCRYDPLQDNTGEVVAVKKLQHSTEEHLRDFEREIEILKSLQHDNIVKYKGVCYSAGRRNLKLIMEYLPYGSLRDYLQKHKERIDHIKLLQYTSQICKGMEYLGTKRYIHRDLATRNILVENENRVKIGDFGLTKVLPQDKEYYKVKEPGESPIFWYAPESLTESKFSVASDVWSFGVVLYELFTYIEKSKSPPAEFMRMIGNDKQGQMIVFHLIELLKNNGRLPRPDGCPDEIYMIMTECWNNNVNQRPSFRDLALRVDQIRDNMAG", "details": "kinase JAK2"}, "[3]": {"target": "T3, panel of 370 protein kinases (Homo sapiens, UniProt P10721)", "T3 construct": "purchased Reaction Biology Corporation (assay service)", "details": "2 h, kinase c-Kit; read-out: % Enzyme Activity (relative to DMSO controls)"}, "[4]": {"target": "T4, panel of 370 protein kinases (Homo sapiens, UniProt P11362)", "T4 construct": "purchased Reaction Biology Corporation (assay service)", "T4 sequence (P11362 22-822)": "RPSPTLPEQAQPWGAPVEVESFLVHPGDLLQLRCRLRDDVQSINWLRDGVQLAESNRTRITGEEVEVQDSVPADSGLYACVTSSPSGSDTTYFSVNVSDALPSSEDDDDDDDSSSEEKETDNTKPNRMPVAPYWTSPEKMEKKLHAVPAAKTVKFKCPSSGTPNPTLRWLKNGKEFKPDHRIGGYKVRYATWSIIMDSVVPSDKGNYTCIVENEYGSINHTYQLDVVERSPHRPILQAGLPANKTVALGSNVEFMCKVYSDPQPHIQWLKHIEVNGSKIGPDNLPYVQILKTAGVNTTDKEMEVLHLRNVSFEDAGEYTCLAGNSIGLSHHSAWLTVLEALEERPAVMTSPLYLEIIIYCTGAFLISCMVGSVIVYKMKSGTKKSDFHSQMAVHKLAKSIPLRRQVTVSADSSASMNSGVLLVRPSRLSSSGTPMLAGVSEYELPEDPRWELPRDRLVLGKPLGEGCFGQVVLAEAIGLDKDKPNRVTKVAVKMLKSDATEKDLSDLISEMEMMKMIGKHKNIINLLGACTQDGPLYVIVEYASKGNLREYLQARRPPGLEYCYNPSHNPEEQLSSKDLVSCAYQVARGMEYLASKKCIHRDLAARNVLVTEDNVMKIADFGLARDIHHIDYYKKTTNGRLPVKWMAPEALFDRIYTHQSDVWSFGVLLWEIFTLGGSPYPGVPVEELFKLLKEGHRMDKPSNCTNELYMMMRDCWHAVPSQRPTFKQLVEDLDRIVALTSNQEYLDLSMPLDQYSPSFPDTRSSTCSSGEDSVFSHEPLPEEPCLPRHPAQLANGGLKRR", "details": "2 h, kinase FGFR1; read-out: % Enzyme Activity (relative to DMSO controls)"}, "[5]": {"target": "T5, panel of 370 protein kinases (Homo sapiens, UniProt P14616)", "T5 construct": "purchased Reaction Biology Corporation (assay service)", "details": "2 h, kinase IRR/INSRR; read-out: % Enzyme Activity (relative to DMSO controls)"}, "[6]": {"target": "T6, panel of 370 protein kinases (Homo sapiens, UniProt P35626)", "T6 construct": "purchased Reaction Biology Corporation (assay service)", "details": "2 h, kinase GRK3; read-out: % Enzyme Activity (relative to DMSO controls)"}, "[7]": {"target": "T7, panel of 370 protein kinases (Homo sapiens, UniProt P48729)", "T7 construct": "purchased Reaction Biology Corporation (assay service)", "details": "2 h, kinase CK1a1; read-out: % Enzyme Activity (relative to DMSO controls)"}, "[8]": {"target": "T8, panel of 370 protein kinases (Homo sapiens, UniProt P49761)", "T8 construct": "purchased Reaction Biology Corporation (assay service)", "details": "2 h, kinase CLK3; read-out: % Enzyme Activity (relative to DMSO controls)"}, "[9]": {"target": "T9, panel of 370 protein kinases (Homo sapiens, UniProt P51817)", "T9 construct": "purchased Reaction Biology Corporation (assay service)", "T9 sequence (P51817 whole entry)": "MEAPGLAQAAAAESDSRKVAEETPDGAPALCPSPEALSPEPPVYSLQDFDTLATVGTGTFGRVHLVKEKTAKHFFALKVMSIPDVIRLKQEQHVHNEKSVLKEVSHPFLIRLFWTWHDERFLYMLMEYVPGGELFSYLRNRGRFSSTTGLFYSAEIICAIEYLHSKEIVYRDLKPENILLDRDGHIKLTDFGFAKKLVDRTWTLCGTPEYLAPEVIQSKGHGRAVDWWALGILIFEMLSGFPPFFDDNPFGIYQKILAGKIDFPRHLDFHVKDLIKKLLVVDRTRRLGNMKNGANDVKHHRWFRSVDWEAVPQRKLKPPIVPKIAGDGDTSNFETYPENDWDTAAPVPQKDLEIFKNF", "details": "2 h, kinase PRKX; read-out: % Enzyme Activity (relative to DMSO controls)"}, "[10]": {"target": "T10, panel of 370 protein kinases (Homo sapiens, UniProt P52333)", "T10 construct": "purchased Reaction Biology Corporation (assay service)", "details": "2 h, kinase JAK3; read-out: % Enzyme Activity (relative to DMSO controls)"}, "[11]": {"target": "T11, panel of 370 protein kinases (Homo sapiens, UniProt P53355)", "T11 construct": "purchased Reaction Biology Corporation (assay service)", "T11 sequence (P53355 whole entry)": "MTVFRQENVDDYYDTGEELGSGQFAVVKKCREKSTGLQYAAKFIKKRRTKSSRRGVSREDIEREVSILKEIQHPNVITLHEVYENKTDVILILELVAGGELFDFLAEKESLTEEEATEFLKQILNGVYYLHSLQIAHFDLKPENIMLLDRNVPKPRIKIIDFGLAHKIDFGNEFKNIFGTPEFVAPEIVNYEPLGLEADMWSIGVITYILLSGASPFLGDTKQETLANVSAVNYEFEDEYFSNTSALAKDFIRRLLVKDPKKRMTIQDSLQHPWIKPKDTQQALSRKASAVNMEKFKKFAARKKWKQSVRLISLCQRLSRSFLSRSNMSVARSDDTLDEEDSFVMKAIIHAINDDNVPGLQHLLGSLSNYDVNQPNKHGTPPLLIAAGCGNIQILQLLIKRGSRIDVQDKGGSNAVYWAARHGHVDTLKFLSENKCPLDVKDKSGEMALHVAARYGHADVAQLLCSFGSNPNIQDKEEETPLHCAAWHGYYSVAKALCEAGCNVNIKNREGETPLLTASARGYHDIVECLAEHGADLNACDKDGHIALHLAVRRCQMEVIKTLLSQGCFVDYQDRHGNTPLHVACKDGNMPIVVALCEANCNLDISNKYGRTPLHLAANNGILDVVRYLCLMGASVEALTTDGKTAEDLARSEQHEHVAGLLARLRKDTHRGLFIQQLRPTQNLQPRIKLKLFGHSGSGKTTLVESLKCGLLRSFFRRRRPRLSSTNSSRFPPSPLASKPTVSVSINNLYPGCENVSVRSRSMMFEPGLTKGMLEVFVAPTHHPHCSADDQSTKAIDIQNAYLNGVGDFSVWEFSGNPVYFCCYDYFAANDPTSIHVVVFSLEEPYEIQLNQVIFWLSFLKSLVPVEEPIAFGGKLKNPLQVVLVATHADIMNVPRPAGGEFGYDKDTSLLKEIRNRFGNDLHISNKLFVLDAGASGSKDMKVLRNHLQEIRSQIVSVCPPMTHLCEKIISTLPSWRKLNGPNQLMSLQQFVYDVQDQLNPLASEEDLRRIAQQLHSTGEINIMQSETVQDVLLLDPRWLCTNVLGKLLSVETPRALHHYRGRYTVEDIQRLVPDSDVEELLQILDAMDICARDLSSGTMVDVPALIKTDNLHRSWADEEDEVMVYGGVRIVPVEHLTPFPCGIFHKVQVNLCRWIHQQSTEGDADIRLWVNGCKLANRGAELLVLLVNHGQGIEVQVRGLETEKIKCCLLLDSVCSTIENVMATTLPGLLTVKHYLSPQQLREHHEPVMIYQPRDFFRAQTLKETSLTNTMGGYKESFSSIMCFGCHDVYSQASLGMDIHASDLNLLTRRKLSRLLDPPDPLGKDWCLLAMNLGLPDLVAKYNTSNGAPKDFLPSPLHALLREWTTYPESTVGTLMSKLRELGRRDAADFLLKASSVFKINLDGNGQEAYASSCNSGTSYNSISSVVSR", "details": "2 h, kinase DAPK1; read-out: % Enzyme Activity (relative to DMSO controls)"}, "[12]": {"target": "T12, panel of 370 protein kinases (Homo sapiens, UniProt Q14289)", "T12 construct": "purchased Reaction Biology Corporation (assay service)", "details": "2 h, kinase PYK2; read-out: % Enzyme Activity (relative to DMSO controls)"}, "[13]": {"target": "T13, panel of 370 protein kinases (Homo sapiens, UniProt Q5TCY1)", "T13 construct": "purchased Reaction Biology Corporation (assay service)", "details": "2 h, kinase TTBK1; read-out: % Enzyme Activity (relative to DMSO controls)"}, "[14]": {"target": "T14, panel of 370 protein kinases (Homo sapiens, UniProt Q8IYT8)", "T14 construct": "purchased Reaction Biology Corporation (assay service)", "details": "2 h, kinase ULK2; read-out: % Enzyme Activity (relative to DMSO controls)"}, "[15]": {"target": "T15, panel of 370 protein kinases (Homo sapiens, UniProt Q8N568)", "T15 construct": "purchased Reaction Biology Corporation (assay service)", "details": "2 h, kinase DCAMKL2; read-out: % Enzyme Activity (relative to DMSO controls)"}, "[16]": {"target": "T16, panel of 370 protein kinases (Homo sapiens, UniProt Q8NE63)", "T16 construct": "purchased Reaction Biology Corporation (assay service)", "details": "2 h, kinase HIPK4; read-out: % Enzyme Activity (relative to DMSO controls)"}, "[17]": {"target": "T17, panel of 370 protein kinases (Homo sapiens, UniProt Q96SB4)", "T17 construct": "purchased Reaction Biology Corporation (assay service)", "details": "2 h, kinase SRPK1; read-out: % Enzyme Activity (relative to DMSO controls)"}, "[18]": {"target": "T18, panel of 370 protein kinases (Homo sapiens, UniProt Q9H3Y6)", "T18 construct": "purchased Reaction Biology Corporation (assay service)", "T18 sequence (Q9H3Y6 whole entry)": "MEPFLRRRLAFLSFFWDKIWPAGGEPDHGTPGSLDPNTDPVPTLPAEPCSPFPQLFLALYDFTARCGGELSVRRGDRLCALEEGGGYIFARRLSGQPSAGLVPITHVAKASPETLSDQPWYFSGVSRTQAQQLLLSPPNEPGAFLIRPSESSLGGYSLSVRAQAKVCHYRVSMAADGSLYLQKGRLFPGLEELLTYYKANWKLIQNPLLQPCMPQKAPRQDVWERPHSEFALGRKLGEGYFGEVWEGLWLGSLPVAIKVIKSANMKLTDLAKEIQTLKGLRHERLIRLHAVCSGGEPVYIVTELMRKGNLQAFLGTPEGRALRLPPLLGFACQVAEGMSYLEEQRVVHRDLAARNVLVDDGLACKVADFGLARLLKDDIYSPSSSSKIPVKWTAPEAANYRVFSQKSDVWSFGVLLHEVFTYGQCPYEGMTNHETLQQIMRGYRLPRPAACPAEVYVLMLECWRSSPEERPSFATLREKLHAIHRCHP", "details": "2 h, kinase SRMS; read-out: % Enzyme Activity (relative to DMSO controls)"}, "[19]": {"target": "T19, panel of 370 protein kinases (Homo sapiens, UniProt Q9HCP0)", "T19 construct": "purchased Reaction Biology Corporation (assay service)", "T19 sequence (Q9HCP0 whole entry)": "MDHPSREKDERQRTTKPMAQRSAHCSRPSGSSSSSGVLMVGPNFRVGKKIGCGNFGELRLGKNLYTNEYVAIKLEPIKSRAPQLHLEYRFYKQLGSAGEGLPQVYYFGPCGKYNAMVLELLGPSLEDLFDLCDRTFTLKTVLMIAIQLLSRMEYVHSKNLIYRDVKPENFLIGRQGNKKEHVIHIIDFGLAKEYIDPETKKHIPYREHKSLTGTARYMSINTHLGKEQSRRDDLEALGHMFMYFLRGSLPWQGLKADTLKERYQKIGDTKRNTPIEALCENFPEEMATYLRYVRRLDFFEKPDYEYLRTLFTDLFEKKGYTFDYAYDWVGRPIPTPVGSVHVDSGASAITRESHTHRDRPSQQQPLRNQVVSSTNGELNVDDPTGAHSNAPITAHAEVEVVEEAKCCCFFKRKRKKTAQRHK", "details": "kinase CK1g1"}, "[20]": {"target": "T20, panel of 370 protein kinases (Homo sapiens, UniProt Q9NRH2)", "T20 construct": "purchased Reaction Biology Corporation (assay service)", "details": "2 h, kinase SNRK; read-out: % Enzyme Activity (relative to DMSO controls)"}, "[21]": {"target": "T21, panel of 370 protein kinases (Homo sapiens, UniProt Q9UKI8)", "T21 construct": "purchased Reaction Biology Corporation (assay service)", "details": "2 h, kinase TLK1; read-out: % Enzyme Activity (relative to DMSO controls)"}}, "note": "Several values for one entry are separate records, joined by “and”; a condition that tells them apart may be missing. Equal entries are not always repeated."}
{"smiles": "CCN1CCN(C(=O)c2ccc(Nc3ncc(F)c(-c4ccc5nc(N(C)C)sc5c4)n3)nc2)CC1", "note": "[YK-2-69]", "values": [{"measurement": "remaining activity at 1 µM", "setting": "[1]", "value": 102, "unit": "%"}, {"measurement": "% Enzyme Activity (relative to DMSO controls)", "setting": "[2]", "value": "101.21% and 93.21%"}, {"measurement": "remaining activity at 1 µM", "setting": "[3]", "value": 94, "unit": "%"}, {"measurement": "remaining activity at 1 µM", "setting": "[4]", "value": 76.5, "unit": "%"}, {"measurement": "remaining activity at 1 µM", "setting": "[5]", "value": 91.8, "unit": "%"}, {"measurement": "remaining activity at 1 µM", "setting": "[6]", "value": 108, "unit": "%"}, {"measurement": "remaining activity at 1 µM", "setting": "[7]", "value": 82, "unit": "%"}, {"measurement": "remaining activity at 1 µM", "setting": "[8]", "value": 80.5, "unit": "%"}, {"measurement": "remaining activity at 1 µM", "setting": "[9]", "value": 95.1, "unit": "%"}, {"measurement": "remaining activity at 1 µM", "setting": "[10]", "value": 111, "unit": "%"}, {"measurement": "remaining activity at 1 µM", "setting": "[11]", "value": 62.2, "unit": "%"}, {"measurement": "remaining activity at 1 µM", "setting": "[12]", "value": 110, "unit": "%"}, {"measurement": "remaining activity at 1 µM", "setting": "[13]", "value": 97.4, "unit": "%"}, {"measurement": "remaining activity at 1 µM", "setting": "[14]", "value": 97.9, "unit": "%"}, {"measurement": "remaining activity at 1 µM", "setting": "[15]", "value": 108, "unit": "%"}, {"measurement": "remaining activity at 1 µM", "setting": "[16]", "value": 56.5, "unit": "%"}, {"measurement": "remaining activity at 1 µM", "setting": "[17]", "value": 91.8, "unit": "%"}, {"measurement": "remaining activity at 1 µM", "setting": "[18]", "value": 80.7, "unit": "%"}, {"measurement": "% Enzyme Activity (relative to DMSO controls)", "setting": "[19]", "value": "102.35% and 96.73%"}, {"measurement": "remaining activity at 1 µM", "setting": "[20]", "value": 95.4, "unit": "%"}, {"measurement": "remaining activity at 1 µM", "setting": "[21]", "value": 98.4, "unit": "%"}]}
